Results as given in patent publication US9555130B2, “Compositions and methods for in vivo imaging of myelin in the peripheral nervous system” (Case Western Reserve University, priority 2010, dated 2017).

Columns and labels:
[1] = tested on: sciatic nerve (PNS myelin); experiment: In vivo imaging of sciatic nerve by multiphoton microscope; parameters: species or system wild type mouse; conditions: live anesthetized mouse, exposed sciatic nerve
From the text: In Vivo Staining Procedure: (1) Shave fur off region where sciatic nerve is located; (2) Cut soft tissue and muscle tissue covering sciatic nerve using surgical scissors; (3) Place animal under multiphoton microscope while anesthetized with isoflurane gas; and (4) Take live images of nerve.

[2] = tested on: sciatic nerve (PNS myelin); experiment: In vitro staining of sciatic nerve tissue sections, fluorescent microscopy; parameters: species or system wild type mouse; conditions: tissue section of sciatic nerve with surrounding muscle; confirmed by Black and Gold staining of adjacent section
From the text: In Vitro Staining Procedure: (1) Removal of wild type mouse sciatic nerve imbedded in muscle; (2) Sectioning of muscle with nerve with cryostat; (3) Chemical staining of tissue section of sciatic nerve with muscle tissue surrounded it; (4) Observation under fluorescent microscopy; (5) A Black and Gold staining of adjacent tissue section; and (6) Observation under regular microscope.
The staining of the sciatic nerve was confirmed by the Black and Gold staining of the adjacent tissue section (see FIG. 4).

[3] = Solubility of BDB in organic solvents; format: physicochemical
[4] = Excitation and emission spectra (Cary Eclipse fluorescent spectrophotometer); format: physicochemical; conditions: 1 μM in DMSO
Method: FIG. 2 illustrates excitation and emission spectra of (E,E)-1,4-bis(4-aminostyryl)-2-dimethoxy-benzene (BDB) (1 μM in […]). Excitation spectra: emission at 510 nm (range 300-500 nm), bandwidth at 5 nm, scan at 120 nm/mm, integration time 0.5 sec. and maximal excitation wavelength at 426 nm. Emission spectra: excitation at 426 nm (range 430-650 nm), bandwidth at 5 nm, scan at 120 nm/min. integration time of 0.5 sec. and maximal emission wavelength at 506 nm.
Excitation and emission spectra of BDB (1 μM in DMSO) recorded using a Cary Eclipse fluorescent spectrophotometer (Variant Inc.; Palo Alto, Calif.) are shown in FIG. 2. Maximal excitation and emission peaks were found at 426 nm and 506 nm, respectively.

CNS myelin = conditions: previously shown; cited from earlier work
[5] = tested on: sciatic nerve (PNS myelin); experiment: Ex vivo staining of sciatic nerve after tail vein injection, microscope and FLI; format: in vivo, wild type mouse; conditions: post tail vein injection; tissue section under microscope
From the text: Ex Vivo Staining Procedure: (1) Injection of BDB via tail vein in wild type mouse; (2) Removal of sciatic nerve imbedded in muscle from right side; (3) Sectioning of muscle with nerve; (4) Observation of tissue under microscope to check staining; (5) Removal of left sciatic nerve from muscle; and (6) Observation of fluorescent in FLI machine.
An FLI machine picked up fluorescence from sciatic nerve placed in a tube with 4% paraformaldehyde (PFA) solution (FIG. 6).

maximal emission peak [4]: 506 nm | maximal excitation peak [4]: 426 nm
SMILES: COc1cc(/C=C/c2ccc(N)cc2)c(OC)cc1/C=C/c1ccc(N)cc1 [BDB, (E,E)-1,4-bis(4′-aminostyryl)-2-dimethoxy-benzene]
staining of intact myelin sheaths in peripheral nervous system tissue in vivo [1]: selectively stains intact myelin sheaths | staining of sciatic nerve in vitro [2]: selectively stained the sciatic nerve | solubility [3]: soluble in CH2Cl2, DMSO, and in most other organic solvents | binding to myelin and retention in CNS white matter (CNS myelin): selectively binds to myelin and is retained in CNS white matter | staining of sciatic nerve ex vivo [5]: successfully stained
